The source of these data is DBAASP.

One may read the MIC as the lowest concentration that inhibits growth of the organism.

Converted amounts (≈) assume the structure as drawn. “And” between values parts separate entries of the source, which are not always exact repeats. Equal values may be shown once.

What all share (assay): ≥ marks a high value that may be exact or a test limit, other limits are often not marked, values filed in µg/mL are converted to µM
For assay [1], the system named is Bacillus subtilis PS832.
Assay [2] deals with Escherichia coli ATCC 25922.
The test system of assay [3] is Escherichia coli DL7.
The test system of assay [4] is Klebsiella aerogenes ATCC 13048.
For assay [5], the system named is Pseudomonas aeruginosa ATCC 27853.
The test system of assay [6] is Staphylococcus aureus ATCC 25923.
Assay [7] deals with Staphylococcus epidermidis ATCC 12228.
For assay [8], the system named is Acinetobacter baumannii ATCC BAA-1605.
For assay [9], the system named is Enterococcus faecium ATCC 700221.
In assay [10] the test system is Klebsiella pneumoniae ATCC 700603.
For assay [11], the system named is Staphylococcus aureus ATCC 33591.
In assay [12] the test system is Bacillus megaterium Bm11.
Assay [13] has as its system Escherichia coli D21.
In assay [14] the test system is Escherichia coli ML-35.
Assay [15] deals with Salmonella enterica subsp. enterica serovar Typhimurium ATCC 14028.
Assay [16] relates to Serratia marcescens ATCC 8100.
Assay [17] relates to Bacillus subtilis ATCC 62037.
Assay [18] deals with Candida albicans ATCC 10231.
Assay [19] deals with Cryptococcus neoformans ATCC 34881.
The subject of assay [20] is Escherichia coli ATCC 27325.
Assay [21] deals with Pseudomonas putida ATCC 17426.
Assay [22] concerns Saccharomyces cerevisiae ATCC 44774.
Assay [23] has as its system Salmonella enterica subsp. enterica serovar Enteritidis ATCC 13076.
Assay [24] concerns Staphylococcus aureus ATCC 15752.
Assay [25] relates to Streptococcus mutans ATCC 25175.
For assay [26], the system named is Corynebacterium glutamicum ATCC 13032.
Assay [27] has as its system Escherichia coli HB101.
For assay [28], the system named is Staphylococcus aureus ATCC 9144.
Assay [29] concerns Bacillus subtilis KCTC 1918.
The subject of assay [30] is Candida albicans KCTC 7270.
The test system of assay [31] is Escherichia coli KCTC 1682.
Assay [32] relates to Pseudomonas aeruginosa KCTC 1637.
Assay [33] concerns Saccharomyces cerevisiae KCTC 7296.
Assay [34] concerns Salmonella typhimurium KCTC 1926.
Assay [35] concerns Staphylococcus aureus KCTC 1621.
Assay [36] relates to Staphylococcus epidermidis KCTC 1917.
Assay [37] relates to Trichosporon beigelii KCTC 7707.

Turning to `CC(C)C[C@H](NC(=O)[C@H](CCCCN)NC(=O)[C@H](C)NC(=O)[C@H](CC(C)C)NC(=O)[C@H](CCCCN)NC(=O)[C@H](CCCCN)NC(=O)[C@H](C)NC(=O)[C@H](CC(C)C)NC(=O)[C@H](CCCCN)NC(=O)[C@H](C)NC(=O)[C@H](CC(C)C)NC(=O)[C@@H](N)CCCCN)C(=O)N[C@@H](C)C(=O)N[C@@H](CCCCN)C(N)=O` [KLAKLAKKLAKLAK], the MIC was 0.5 µM and 0.25 µM in [1]; 6 µM (≈ 9.14 µg/mL) in assay [2]; 1 µM (≈ 1.52 µg/mL) in [3]; at least 32 µM in assay [4]; 6 µM (≈ 9.14 µg/mL) in assay [5]; 6 µM (≈ 9.14 µg/mL) in assay [6]. The compound further yielded an MIC in assay [7] of 4 µM (≈ 6.09 µg/mL).
On to `CC[C@H](C)[C@H](NC(=O)[C@H](CCCCN)NC(=O)[C@H](CCCCN)NC(=O)[C@H](Cc1ccccc1)NC(=O)[C@H](CC(C)C)NC(=O)[C@H](CCCN=C(N)N)NC(=O)[C@@H](N)CCCN=C(N)N)C(=O)N[C@@H](CC(C)C)C(=O)N[C@@H](CCCCN)C(=O)N[C@@H](Cc1ccc(O)cc1)C(=O)N[C@@H](CC(C)C)C(N)=O` [RRLFKKILKYL], for which the MIC stood at 3.04 µM (≈ 4.5 µg/mL) in assay [8]; 11.5 µM (≈ 17 µg/mL) in assay [9]; 23.3 µM (≈ 34.5 µg/mL) in assay [2]; 11.5 µM (≈ 17 µg/mL) in assay [10]; 11.5 µM (≈ 17 µg/mL) in assay [5]; 23.3 µM (≈ 34.5 µg/mL) in assay [11].
`CC(C)C[C@H](NC(=O)[C@H](Cc1ccc(O)cc1)NC(=O)[C@@H]1CCCN1C(=O)[C@@H]1CCCN1C(=O)[C@H](CCCN=C(N)N)NC(=O)[C@@H]1CCCN1C(=O)[C@H](CC(N)=O)NC(=O)[C@H](CC(N)=O)NC(=O)[C@@H](N)CC(N)=O)C(=O)N1CCC[C@H]1C(=O)N[C@@H](CCCN=C(N)N)C(=O)N1CCC[C@H]1C(=O)N[C@@H](CCCN=C(N)N)C(=O)N1CCC[C@H]1C(=O)N1CCC[C@H]1C(=O)O` [NNNPRPPYLPRPRPP]: the MIC is at least 64 µM in assay [12]; at least 64 µM in assay [13]; at least 64 µM in [14]; over 64 µM in [15]; at least 64 µM in [16]; over 64 µM in assay [7].
On to `CC(C)[C@H](NC(=O)[C@H](CCCCN)NC(=O)CNC(=O)CNC(=O)[C@H](CCC(N)=O)NC(=O)[C@H](CCCCN)NC(=O)CNC(=O)[C@H](CCCN=C(N)N)NC(=O)CNC(=O)[C@@H](N)CO)C(=O)N[C@@H](CCCN=C(N)N)C(=O)N[C@@H](C)C(=O)N[C@@H](CCCCN)C(=O)N[C@@H](C)C(=O)N[C@@H](CCCCN)C(=O)N[C@H](C(=O)N[C@@H](CCCN=C(N)N)C(=O)N[C@@H](CO)C(=O)N[C@@H](CO)C(=O)O)[C@@H](C)O` [SGRGKQGGKVRAKAKTRSS], for which the MIC amounted to 2.04 µM (≈ 4 µg/mL) in assay [17]; 16.3 µM (≈ 32 µg/mL) in assay [18]; 2.04 µM (≈ 4 µg/mL) in assay [19]; 4.08 µM (≈ 8 µg/mL) in [20]; 8.17 µM (≈ 16 µg/mL) in assay [21]; 8.17 µM (≈ 16 µg/mL) in [22]. Besides, the MIC worked out at 16.3 µM (≈ 32 µg/mL) in assay [23], 8.17 µM (≈ 16 µg/mL) in assay [24] and 16.3 µM (≈ 32 µg/mL) in [25].
Consider `CC[C@H](C)[C@H](NC(=O)[C@@H]1CCCN1C(=O)[C@H](Cc1c[nH]c2ccccc12)NC(=O)[C@H](CCC(N)=O)NC(=O)[C@H](CCCN=C(N)N)NC(=O)[C@@H](NC(=O)[C@@H](NC(=O)[C@@H](N)CCCN=C(N)N)C(C)C)C(C)C)C(=O)NCC(=O)N[C@@H](CCCN=C(N)N)C(=O)N[C@H](C(=O)N[C@H](C(=O)N[C@@H](CCCN=C(N)N)C(=O)N[C@@H](CCCN=C(N)N)C(=O)N[C@H](C(=O)N[C@H](C(=O)N[C@@H](CCCN=C(N)N)C(=O)N[C@@H](CCCN=C(N)N)C(=O)N[C@H](C(=O)N[C@H](C(=O)N[C@@H](CCCN=C(N)N)C(=O)N[C@@H](Cc1ccccc1)C(=O)O)C(C)C)C(C)C)C(C)C)C(C)C)C(C)C)C(C)C` [RVVRQWPIGRVVRRVVRRVVRF], for which the MIC in assay [17] was 0.717 µM (≈ 2 µg/mL); in [18] it was 0.179 µM (≈ 0.5 µg/mL); in [20], 1.43 µM (≈ 4 µg/mL); in assay [21] it was 1.43 µM (≈ 4 µg/mL); in assay [22] it was 0.179 µM (≈ 0.5 µg/mL); in assay [23], 0.717 µM (≈ 2 µg/mL). In addition, the MIC in assay [24] and in assay [25] was 0.717 µM (≈ 2 µg/mL) each time.
Consider `CC[C@H](C)[C@H](NC(=O)[C@@H]1CCCN1C(=O)[C@H](CCCCN)NC(=O)[C@@H]1CCCN1C(=O)[C@H](CCCN=C(N)N)NC(=O)CNC(=O)[C@@H]1CCCN1C(=O)[C@H](Cc1ccccc1)NC(=O)[C@@H]1CCCN1C(=O)[C@H](CCCN=C(N)N)NC(=O)[C@@H]1CCCN1C(=O)[C@H](CCCN=C(N)N)NC(=O)CNC(=O)[C@@H]1CCCN1C(=O)[C@@H](N)CO)C(=O)N[C@@H](Cc1ccccc1)C(=O)N[C@@H](CCCN=C(N)N)C(=O)N1CCC[C@H]1C(=O)N[C@@H](CCCN=C(N)N)C(=O)O` [SPGRPRPFPGRPKPIFRPR], for which the MIC in assay [26] is 6.3 µM (≈ 14 µg/mL); in assay [2], over 100 µM; in assay [27], at least 100 µM; in assay [5], over 100 µM; in [28], at least 100 µM.
`CC(C)C[C@H](NC(=O)[C@H](CCCCN)NC(=O)[C@H](C)NC(=O)[C@H](CC(C)C)NC(=O)[C@H](CCCCN)NC(=O)[C@H](CCCCN)NC(=O)[C@H](C)NC(=O)[C@H](CC(C)C)NC(=O)[C@H](CCCCN)NC(=O)[C@H](C)NC(=O)[C@H](CC(C)C)NC(=O)[C@H](CCCCN)NC(=O)[C@H](Cc1cnc[nH]1)NC(=O)[C@H](C)NC(=O)[C@@H](N)CC(=O)O)C(=O)N[C@@H](C)C(=O)N[C@@H](CCCCN)C(N)=O` [DAHKLAKLAKKLAKLAK]: the MIC in assay [1] was 0.25 µM and 0.5 µM; in assay [3], 0.25 µM (≈ 0.462 µg/mL); in assay [4] it was at least 32 µM; in assay [7], 4 µM (≈ 7.39 µg/mL).
`CC[C@H](C)[C@H](NC(=O)[C@H](CCCCN)NC(=O)[C@H](CO)NC(=O)[C@H](Cc1ccccc1)NC(=O)[C@H](CC(C)C)NC(=O)[C@H](CCCCN)NC(=O)[C@H](CCC(=O)O)NC(=O)[C@H](CC(C)C)NC(=O)[C@H](CCCN=C(N)N)NC(=O)[C@H](CCCCN)NC(=O)[C@H](Cc1ccccc1)NC(=O)[C@@H](NC(=O)[C@@H](N)CCCCN)C(C)C)C(N)=O` [KVFKRLEKLFSKI]: the MIC is 2.21 µM (≈ 3.61 µg/mL) in assay [29]; 25 µM (≈ 40.9 µg/mL) in assay [30]; 3.12 µM (≈ 5.11 µg/mL) in assay [31]; 1.56 µM (≈ 2.55 µg/mL) in assay [32]; 8.84 µM (≈ 14.5 µg/mL) in assay [33]; 0.78 µM (≈ 1.28 µg/mL) in assay [34]. Also, the minimal inhibitory concentration (MIC) in [35] was found to be 6.25 µM (≈ 10.2 µg/mL); in assay [36], 6.25 µM (≈ 10.2 µg/mL); in assay [37], 1.56 µM (≈ 2.55 µg/mL).
